Laboratory results from ChEMBL document CHEMBL1201862, “PubChem BioAssay data set” (2004).
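In this assay, cells in 96-well plates receive the compound at five concentrations for 48 hours. Endpoints are linearly interpolated between the surrounding concentrations. GI50: concentration for 50% inhibition of growth.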 Calls of active or inactive are those of the source. No stated cut-off is given here; in the data, active = GI50 up to about 1.1 µM and inactive = higher.

Key:
Test in all cases: NCI-60 cell line screen, 48 h
COLO 205 = test system: COLO 205
M14 = test system: M14
SK-MEL-2 = test system: SK-MEL-2
SF-268 = test system: SF-268
T47D = test system: T47D
SK-OV-3 = test system: SK-OV-3
SK-MEL-28 = test system: SK-MEL-28
786-0 = test system: 786-0
UACC-62 = test system: UACC-62
A549 = test system: A549
SNB-75 = test system: SNB-75
RPMI-8226 = test system: RPMI-8226
OVCAR-4 = test system: OVCAR-4
U-251 = test system: U-251
SF-295 = test system: SF-295
Malme-3M = test system: Malme-3M
MDA-MB-435 = test system: MDA-MB-435
SNB-19 = test system: SNB-19
EKVX = test system: EKVX
OVCAR-8 = test system: OVCAR-8
HOP-62 = test system: HOP-62
HOP-92 = test system: HOP-92
SN12C = test system: SN12C
MDA-N = test system: MDA-N
RXF 393 = test system: RXF 393
UACC-257 = test system: UACC-257
SW-620 = test system: SW-620
SK-MEL-5 = test system: SK-MEL-5
SR = test system: SR
Hs-578T = test system: Hs-578T
K562 = test system: K562
HCT-116 = test system: HCT-116
MOLT-4 = test system: MOLT-4
KM12 = test system: KM12
MDA-MB-231 = test system: MDA-MB-231
HCC 2998 = test system: HCC 2998
NCI/ADR-RES = test system: NCI/ADR-RES
HT-29 = test system: HT-29
NCI-H522 = test system: NCI-H522
UO-31 = test system: UO-31
CCRF-CEM = test system: CCRF-CEM
LOX IMVI = test system: LOX IMVI
DU-145 = test system: DU-145
OVCAR-5 = test system: OVCAR-5
ACHN = test system: ACHN
PC-3 = test system: PC-3
MCF7 = test system: MCF7
IGROV-1 = test system: IGROV-1
HL-60 = test system: HL-60
SF-539 = test system: SF-539
NCI-H23 = test system: NCI-H23
OVCAR-3 = test system: OVCAR-3
BT-549 = test system: BT-549
TK-10 = test system: TK-10
CAKI-1 = test system: CAKI-1
HCT-15 = test system: HCT-15
NCI-H460 = test system: NCI-H460
A498 = test system: A498
NCI-H226 = test system: NCI-H226

SMILES: O=c1oc2c(Cl)cc(Cl)cc2cc1-c1cn2c(n1)sc1ccccc12
- GI50 (COLO 205): 90.4 µM (inactive)
- GI50 (M14): 78.7 µM (inactive)
- GI50 (SK-MEL-2): > 100 µM (inactive)
- GI50 (SF-268): 65.8 µM (inactive)
- GI50 (T47D): 49.8 µM (inactive)
- GI50 (SK-OV-3): > 100 µM (inactive)
- GI50 (SK-MEL-28): > 100 µM (inactive)
- GI50 (786-0): 32.9 µM (inactive)
- GI50 (UACC-62): 35.9 µM (inactive)
- GI50 (A549): > 100 µM (inactive)
- GI50 (SNB-75): > 100 µM (inactive)
- GI50 (RPMI-8226): 24.7 µM (inactive)
- GI50 (OVCAR-4): 47.6 µM (inactive)
- GI50 (U-251): > 100 µM (inactive)
- GI50 (SF-295): 59.2 µM (inactive)
- GI50 (Malme-3M): > 100 µM (inactive)
- GI50 (MDA-MB-435): 38.4 µM (inactive)
- GI50 (SNB-19): > 100 µM (inactive)
- GI50 (EKVX): 65.8 µM (inactive)
- GI50 (OVCAR-8): 87.1 µM (inactive)
- GI50 (HOP-62): 53.5 µM (inactive)
- GI50 (HOP-92): 56.1 µM (inactive)
- GI50 (SN12C): 67.8 µM (inactive)
- GI50 (MDA-N): 38.6 µM (inactive)
- GI50 (RXF 393): 31.2 µM (inactive)
- GI50 (UACC-257): > 100 µM (inactive)
- GI50 (SW-620): 31.9 µM (inactive)
- GI50 (SK-MEL-5): 39.2 µM (inactive)
- GI50 (SR): 21.1 µM (inactive)
- GI50 (Hs-578T): > 100 µM (inactive)
- GI50 (K562): 20.2 µM (inactive)
- GI50 (HCT-116): 27.9 µM (inactive)
- GI50 (MOLT-4): 20.4 µM (inactive)
- GI50 (KM12): > 100 µM (inactive)
- GI50 (MDA-MB-231): 28.4 µM (inactive)
- GI50 (HCC 2998): 24.5 µM (inactive)
- GI50 (NCI/ADR-RES): > 100 µM (inactive)
- GI50 (HT-29): 71.1 µM (inactive)
- GI50 (NCI-H522): 30.1 µM (inactive)
- GI50 (UO-31): 36.1 µM (inactive)
- GI50 (CCRF-CEM): 17.3 µM (inactive)
- GI50 (LOX IMVI): 60.3 µM (inactive)
- GI50 (DU-145): 74 µM (inactive)
- GI50 (OVCAR-5): > 100 µM (inactive)
- GI50 (ACHN): 65.3 µM (inactive)
- GI50 (PC-3): 47.1 µM (inactive)
- GI50 (MCF7): 44.1 µM (inactive)
- GI50 (IGROV-1): 44.1 µM (inactive)
- GI50 (HL-60): 23.9 µM (inactive)
- GI50 (SF-539): > 100 µM (inactive)
- GI50 (NCI-H23): 95.5 µM (inactive)
- GI50 (OVCAR-3): 31.4 µM (inactive)
- GI50 (BT-549): 28.6 µM (inactive)
- GI50 (TK-10): > 100 µM (inactive)
- GI50 (CAKI-1): 71.6 µM (inactive)
- GI50 (HCT-15): 28.6 µM
- GI50 (NCI-H460): > 100 µM (inactive)

SMILES: CCc1n[nH]c(=O)n1NC(=O)/C=C\C(=O)O
- GI50 (COLO 205): > 100 µM (inactive)
- GI50 (M14): > 100 µM (inactive)
- GI50 (SK-MEL-2): > 100 µM (inactive)
- GI50 (SF-268): > 100 µM (inactive)
- GI50 (T47D): > 100 µM (inactive)
- GI50 (SK-OV-3): > 100 µM (inactive)
- GI50 (786-0): > 100 µM (inactive)
- GI50 (UACC-62): > 100 µM (inactive)
- GI50 (A549): > 100 µM (inactive)
- GI50 (SNB-75): > 100 µM (inactive)
- GI50 (OVCAR-4): > 100 µM (inactive)
- GI50 (U-251): > 100 µM (inactive)
- GI50 (SF-295): > 100 µM (inactive)
- GI50 (Malme-3M): > 100 µM (inactive)
- GI50 (MDA-MB-435): > 100 µM (inactive)
- GI50 (EKVX): > 100 µM (inactive)
- GI50 (OVCAR-8): > 100 µM (inactive)
- GI50 (HOP-62): > 100 µM (inactive)
- GI50 (SN12C): > 100 µM (inactive)
- GI50 (MDA-N): > 100 µM (inactive)
- GI50 (RXF 393): > 100 µM (inactive)
- GI50 (UACC-257): > 100 µM (inactive)
- GI50 (SK-MEL-5): > 100 µM (inactive)
- GI50 (SR): > 100 µM (inactive)
- GI50 (Hs-578T): > 100 µM (inactive)
- GI50 (K562): > 100 µM (inactive)
- GI50 (HCT-116): > 100 µM (inactive)
- GI50 (A498): > 100 µM (inactive)
- GI50 (MOLT-4): > 100 µM (inactive)
- GI50 (MDA-MB-231): > 100 µM (inactive)
- GI50 (HCC 2998): > 100 µM (inactive)
- GI50 (NCI/ADR-RES): > 100 µM (inactive)
- GI50 (HT-29): > 100 µM (inactive)
- GI50 (NCI-H522): > 100 µM (inactive)
- GI50 (NCI-H226): > 100 µM (inactive)
- GI50 (CCRF-CEM): > 100 µM (inactive)
- GI50 (DU-145): > 100 µM (inactive)
- GI50 (OVCAR-5): > 100 µM (inactive)
- GI50 (PC-3): > 100 µM (inactive)
- GI50 (MCF7): > 100 µM (inactive)
- GI50 (IGROV-1): > 100 µM (inactive)
- GI50 (HL-60): > 100 µM (inactive)
- GI50 (SF-539): > 100 µM (inactive)
- GI50 (NCI-H23): > 100 µM (inactive)
- GI50 (OVCAR-3): > 100 µM (inactive)
- GI50 (BT-549): > 100 µM (inactive)
- GI50 (TK-10): > 100 µM (inactive)
- GI50 (CAKI-1): > 100 µM (inactive)
- GI50 (HCT-15): > 100 µM
- GI50 (NCI-H460): > 100 µM (inactive)
